Experimental data: article PMC9919139, “Sustainable Synthesis, Antiproliferative and Acetylcholinesterase Inhibition of 1,4- and 1,2-Naphthoquinone Derivatives” (Molecules, 2023)
Several values for one entry are separate records, joined by “and”; a condition that tells them apart may be missing. Identical values can stand only once. Like-named read-outs stand apart in the source and are kept apart here.

Experiments:
[1] = MTT cytotoxicity assay against HepG2 cell line; assay type: cell-based, human; conditions: human, HepG2 cells, HepG2, 24 h incubation, mean ± SD, read-out: EC50 (cytotoxicity, concentration leading to the death of 50% of the cells)
Experimental: (§1) A hepatocellular carcinoma cell line HepG2, recognized for studying the metabolism of anticancer drugs, was used. The viability of HepG2 cell line culture after 24 h incubation with the compounds using the MTT (3-[4,5-dimethylthiazol-2-yl]-2,5-diphenyl tetrazolium bromide) assay was evaluated, and doxorubicin (Doxo) was used as a positive control.
(§2) HepG2 human hepatocyte carcinoma cell line was purchased from European Collection of Authenticated Cell Cultures (ECACC). HepG2 cells (ECACCC# 85011430) were cultured in Dulbecco’s Modified Eagle´s Medium (DMEM) supplemented with 10% fetal bovine serum, antibiotic-antimycotic (100 U/mL penicillin-streptomycin and 0.25 μg amphotericin B) and 2 mM L-glutamine at 37 °C in an atmosphere containing 5% CO2. The 3-(4,5-dimethylthiazol-2-yl)-2,5-diphenyltetrazolium bromide (MTT) method, described in Gaspar et al., [50] was used for assaying cell viability. Briefly, the cells were grown in the supplemented medium in 96-well microplates in an incubator with 5% CO2 at 37 °C, until reaching 100% confluence. After growth, the medium was replaced by the compounds’ solutions at different concentrations. The compounds were solubilized in supplemented medium containing 0.5% DMSO final concentration. Cells treated only with medium containing 0.5% DMSO served as a negative control. After 24 h incubation, the compound’s solutions were replaced by 100 µL of 0.5 mg/mL MTT solution in DMEM culture medium and incubated at 37 °C, 5% CO2 for 2–4 h. The formed formazan crystals were dissolved in 200 µL of methanol and the absorbance at 595 nm was registered against 630 nm (reference wavelength). For each concentration of the compounds, the percentage of growth inhibition/cytotoxicity was evaluated considering 100% of viability for the absorbance of the negative control. Dose-response curves for each compound were plotted using the Graph Pa Prim 4.0 software and the effective concentration leading to the death of 50% of the cells (EC50) was calculated. All experiments were replicated at least six times.

[2] = tested on: HepG2 human hepatocyte carcinoma cell line; experiment: MTT cytotoxicity assay against HepG2 cell line; assay type: cell-based; conditions: HepG2, 24 h incubation, mean ± SD, read-out: EC50 (cytotoxicity, concentration leading to the death of 50% of the cells)
Experimental: as §1, §2

[3] = target: acetylcholinesterase (AChE) (Homo sapiens, UniProt P22303); experiment: AChE inhibition assay (Ellman's colorimetric method); assay type: biochemical; conditions: for IC50: concentration that inhibits 50% of the AChE activity, read-out: AChEIC50
Chain of acetylcholinesterase (AChE) (P22303 32-614): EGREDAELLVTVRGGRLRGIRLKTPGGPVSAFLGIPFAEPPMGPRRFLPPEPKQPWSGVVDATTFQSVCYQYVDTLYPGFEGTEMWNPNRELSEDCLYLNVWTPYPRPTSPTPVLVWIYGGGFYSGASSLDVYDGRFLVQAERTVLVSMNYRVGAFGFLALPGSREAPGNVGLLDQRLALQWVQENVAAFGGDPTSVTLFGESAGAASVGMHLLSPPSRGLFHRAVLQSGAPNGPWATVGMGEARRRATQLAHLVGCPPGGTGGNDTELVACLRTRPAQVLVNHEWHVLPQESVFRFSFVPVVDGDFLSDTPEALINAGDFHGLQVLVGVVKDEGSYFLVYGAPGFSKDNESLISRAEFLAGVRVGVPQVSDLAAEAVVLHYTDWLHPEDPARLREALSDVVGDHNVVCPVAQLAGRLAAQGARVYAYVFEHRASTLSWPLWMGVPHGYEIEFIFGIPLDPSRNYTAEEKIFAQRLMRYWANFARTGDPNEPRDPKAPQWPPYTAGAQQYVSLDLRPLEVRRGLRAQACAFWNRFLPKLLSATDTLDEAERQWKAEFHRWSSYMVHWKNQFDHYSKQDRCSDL
Experimental: The inhibition of acetylcholinesterase (AChE) enzymatic activity was measured using the Ellman’s colorimetric method with some alterations. Briefly, 325 μL of 50 mM Tris–HCl buffer (pH 8), 100 μL of a compound’s solution with 1% DMSO, and 25 μL of AChE (0.1 U/mL) in 50 mM Tris–HCl buffer pH 8 were incubated for 15 min. Subsequently, 75 μL of acetylthiocholine iodide (AChI) (0.023 mg/mL) and 475 μL of 3 mM 5,5′-dithiobis(2-nitrobenzoic acid) (DTNB) in Tris–HCl buffer (pH 8) containing 0.05 M NaCl and 0.021 M MgCl2 were added to initiate the reaction. The initial rate of the enzymatic reaction was quantified by measuring the absorbance at 405 nm for 5 min (V[compound]). A control reaction was carried out using 1% DMSO water solution, instead of the compound’s solution, and this initial rate was considered 100% of the enzymatic activity, Vcontrol. The percentage of AChE inhibition (I) for various concentrations of the different compounds was determined as the ratio of V[compound] and Vcontrol. For each compound, both the AChEIC50 value (the concentration that inhibits 50% of the AChE activity) and the percentage of inhibition at the compound concentration of 50 µM (Inhibition50µM) were calculated by plotting I for each compound concentration. All the assays were carried out in triplicate.

[4] = Cyclic voltammetry in acetonitrile; assay type: physicochemical; conditions: for Ipa/Ipc: Tables S1/S2, acetonitrile; for Epa. Epc: Tables S1/S2, peak separation; for ∆E (I) / E1/2 (I) / Epc (I): first reduction wave; for ∆E (I) / E1/2 (I) / Epc (I) / Epc (II) / ∆E (II) / E1/2 (II): scan rate 0.100 V·s−1; for Epc (II) / ∆E (II) / E1/2 (II): second reduction wave
From the text: To obtain an insight into the electronic character of the studied naphthoquinone derivatives and to find out possible relationships with their potential biological activities, the electrochemical behavior of 1,4-NQ (1) and 1,2-NQ (2) and their 2-substituted-1,4-NQ (3a–f) and 4-substituted-1,2-NQ derivatives (4a–h), respectively, were studied by cyclic voltammetry (CV) in aprotic medium (CH3CN + TBAP, 0.1 mol.L^−^1) and the electrochemical selected data are listed in Table 3 (for complete electrochemical data, see Tables S1 and S2, supplementary material).
The redox potentials were measured by cyclic voltammetry using an EG&G Princeton Applied Research (PAR) Model 273A potentiostat/galvanostat monitored by a personal computer with the Electrochemistry PowerSuite v2.51 software from PAR. Cyclic voltammograms were obtained in 1 mM of compounds in anhydrous acetonitrile solutions containing tetrabutylammonium hexafluorophosphate (TBAPF6) 0.1 M as supporting electrolyte. A three-electrode configuration cell was used with a homemade platinum disk working electrode (1.0 mm diameter) probed by a Luggin capillary connected to a silver-wire pseudo-reference electrode and a platinum wire auxiliary electrode. The potentials were scanned from −1.8 to 1.8 V at a scan rate of 100 mV·s^−^1. All measurements were done at room temperature and the solutions were deaerated with nitrogen atmosphere before use. All the potentials reported were measured against the ferrocene/ferrocenium redox couple as internal standard and corrected to SCE (using the ferrocenium/ferrocene redox couple E1/2 = 0.40 V vs. SCE).

[5] = tested on: AChE; conditions: read-out: AChEIC50 of reference AChE inhibitors; cited from earlier work
[6] = read-out: Inhibition50µM (AChE inhibition)
[7] = read-out: Inhibiton50µM (μM±SD)
[8] = Tables S1/S2, every redox process listed, acetonitrile, vs SCE, 100 mV.s-1

Row | Structure (SMILES) | EC50 at 24 h [1] [µM] | inhibition at 50 µM [3, 7] [%] | Ipa/Ipc ([4]; 100 mV.s-1) | E1/2 [4, 8] [V] | Epa. Epc ([4]; acetonitrile, 100 mV.s-1) | ∆E (I) ([4]; acetonitrile) [mV] | E1/2 (I) ([4]; acetonitrile, vs SCE) [V] | Epc (I) ([4]; acetonitrile, vs SCE) [V] | Epc (II) ([4]; acetonitrile, vs SCE) [V] | further results
1 | O=C1C=CC(=O)c2ccccc21 [Compound 1, 1,4-naphthoquinone, reference compound] | 32.2 ± 1.4 | 50.7 ± 2.3 | 0.9 | -0.66 | 80 mV | 80 | −0.66 | −0.70 | −1.36 | EC50 ([2]; listed as 1,4-NQ): 32 µM; inhibition at 50 µM [3, 6]: 51%
2 | O=C1C=Cc2ccccc2C1=O [Compound 2, 1,2-naphthoquinone] | 25.6 ± 1.1 | 34.9 ± 5.2 | 1.0 |  | 110 mV and 140 mV | 110 | −0.50 | −0.55 | −0.98 | EC50 ([2]; listed as 1,2-NQ): 26 µM; inhibition at 50 µM [3, 6]: 35%; ∆E (II) ([4]; acetonitrile): 140 mV; E1/2 (II) ([4]; acetonitrile, vs SCE): −0.91 V
3 | Nc1ccc(NC2=CC(=O)c3ccccc3C2=O)cc1 [Compound 3a, 2-(1,4-Phenylenediamine)-1,4-naphthoquinone] | 8.7 ± 1.3 | 23.4 ± 2.5 | 0.9 | -0.82 | 80 mV | 80 | −0.82 | −0.86 | −1.42 | 
4 | O=C1C=C(Nc2ccc(O)cc2)C(=O)c2ccccc21 [Compound 3b, 2-(4-aminophenol)-1,4-naphthoquinone] | 21.4 ± 3.9 | 16.4 ± 2 | 1.0 | -0.81 |  | 70 | −0.81 | −0.84 |  | Epc [4, 8]: -0.84 V
5 | COc1ccc(NC2=CC(=O)c3ccccc3C2=O)cc1 [Compound 3c, 2-(4-methoxyaniline)-1,4-naphthoquinone] | 13 ± 1.8 | 25.9 ± 3 | 1.0 |  | 120 mV | 70 | −0.82 | −0.86 | −1.34 | 
6 | N#Cc1ccc(NC2=CC(=O)c3ccccc3C2=O)cc1 [Compound 3d, 2-(4-aminobenzonitrile)-1,4-naphthoquinone] | 79.4 ± 1.4 | 25.8 ± 3 | 1.0 | -0.70 | 80 mV | 80 | −0.70 | −0.74 |  | Epa [4, 8]: -0.66 V
7 | CCCCNC1=CC(=O)c2ccccc2C1=O [Compound 3e, 2-(butan-1-amine)-1,4-naphthoquinone] | 35.8 ± 1.5 | 48.3 ± 1.6 | 1.0 |  | 100 mV | 70 | −0.95 | −0.98 | −1.47 | ∆E (II) ([4]; acetonitrile): 100 mV; E1/2 (II) ([4]; acetonitrile, vs SCE): −1.42 V
8 | CCN(CC)C1=CC(=O)c2ccccc2C1=O [Compound 3f, 2-(diethylamine)-1,4-naphthoquinone] | 64.7 ± 1.4 | 47.9 ± 2.5 | 1.0 | -0.94 |  | 70 | −0.94 | −0.97 |  | Epc [4, 8]: -0.97 V
9 | Nc1ccc(NC2=CC(=O)C(=O)c3ccccc32)cc1 [Compound 4a] | 2.7 ± 1 | 51.7 ± 2.1 |  |  |  |  |  | −0.67 |  | EC50 [2]: 3 µM; Epc [4, 8]: -0.67 V
10 | O=C1C=C(Nc2ccc(O)cc2)c2ccccc2C1=O [Compound 4b] | 7.1 ± 1.8 | 74.1 ± 1.1 |  |  |  |  |  | −0.61 |  | IC50 [3]: 30 µM; Epc [4, 8]: -0.61 V
11 | COc1ccc(NC2=CC(=O)C(=O)c3ccccc32)cc1 [Compound 4c] | 6.5 ± 1.4 | 45.8 ± 2.9 |  |  |  |  |  | −0.67 |  | 
12 | N#Cc1ccc(NC2=CC(=O)C(=O)c3ccccc32)cc1 [Compound 4d] | 26.8 ± 1.1 | 41.6 ± 2.4 |  |  |  |  |  | −0.47 | −0.84 | 
13 | CCCCNC1=CC(=O)C(=O)c2ccccc21 [Compound 4e, 4-(butan-1-amine)-1,2-naphthoquinone] | 26.8 ± 1.1 | 62.4 ± 1.5 |  | -0.71 | 150 mV |  |  | −0.78 |  | Epc [4, 8]: -0.78 V
14 | CCN(CC)C1=CC(=O)C(=O)c2ccccc21 [Compound 4f, 4-(diethylamine)-1,2-naphthoquinone] | 23.1 ± 1.7 | 54.7 ± 2 | 0.9 | -0.63 | 120 mV |  |  | −0.52 | −0.69 | ∆E (II) ([4]; acetonitrile): 120 mV; E1/2 (II) ([4]; acetonitrile, vs SCE): −0.63 V
15 | O=C1C=C(Nc2ccc(Nc3ccccc3)cc2)c2ccccc2C1=O [Compound 4g] | 9.2 ± 2.3 | 75.3 ± 1.3 |  |  |  |  |  | −0.63 | −1.43 | 
16 | O=C1C=C(Nc2ccccc2O)c2ccccc2C1=O [Compound 4h] | 9.1 ± 3.3 | 85.3 ± 1.3 |  |  |  |  |  | −0.57 | −0.98 | IC50 [3]: 16 µM; inhibition at 50 µM [3, 6]: 85%
17 | COc1cccc2c1C(=O)c1c(O)c3c(c(O)c1C2=O)C[C@@](O)(C(=O)CO)C[C@@H]3O[C@H]1C[C@H](N)[C@H](O)[C@H](C)O1 [Doxorubicin, doxorubicin, reference compound] | 1.42 ± 1 |  |  |  |  |  |  |  |  | EC50 [2]: 1.4 µM
